Molecular target: T1, human F508del CFTR (Homo sapiens, UniProt P13569, DEL508-508)
T1 construct: expressed in transfected cells
Assay: CFTR-YFP Assay, CFTR Corrector Protocol (YFP flux assay)
Format: cell-based
Settings: for Emax: normalized to the positive control, read-out: EMAX (% Efficacy, EMAX normalized to the positive control)

T1 sequence (P13569 with tags, fused parts or gaps DEL508-508): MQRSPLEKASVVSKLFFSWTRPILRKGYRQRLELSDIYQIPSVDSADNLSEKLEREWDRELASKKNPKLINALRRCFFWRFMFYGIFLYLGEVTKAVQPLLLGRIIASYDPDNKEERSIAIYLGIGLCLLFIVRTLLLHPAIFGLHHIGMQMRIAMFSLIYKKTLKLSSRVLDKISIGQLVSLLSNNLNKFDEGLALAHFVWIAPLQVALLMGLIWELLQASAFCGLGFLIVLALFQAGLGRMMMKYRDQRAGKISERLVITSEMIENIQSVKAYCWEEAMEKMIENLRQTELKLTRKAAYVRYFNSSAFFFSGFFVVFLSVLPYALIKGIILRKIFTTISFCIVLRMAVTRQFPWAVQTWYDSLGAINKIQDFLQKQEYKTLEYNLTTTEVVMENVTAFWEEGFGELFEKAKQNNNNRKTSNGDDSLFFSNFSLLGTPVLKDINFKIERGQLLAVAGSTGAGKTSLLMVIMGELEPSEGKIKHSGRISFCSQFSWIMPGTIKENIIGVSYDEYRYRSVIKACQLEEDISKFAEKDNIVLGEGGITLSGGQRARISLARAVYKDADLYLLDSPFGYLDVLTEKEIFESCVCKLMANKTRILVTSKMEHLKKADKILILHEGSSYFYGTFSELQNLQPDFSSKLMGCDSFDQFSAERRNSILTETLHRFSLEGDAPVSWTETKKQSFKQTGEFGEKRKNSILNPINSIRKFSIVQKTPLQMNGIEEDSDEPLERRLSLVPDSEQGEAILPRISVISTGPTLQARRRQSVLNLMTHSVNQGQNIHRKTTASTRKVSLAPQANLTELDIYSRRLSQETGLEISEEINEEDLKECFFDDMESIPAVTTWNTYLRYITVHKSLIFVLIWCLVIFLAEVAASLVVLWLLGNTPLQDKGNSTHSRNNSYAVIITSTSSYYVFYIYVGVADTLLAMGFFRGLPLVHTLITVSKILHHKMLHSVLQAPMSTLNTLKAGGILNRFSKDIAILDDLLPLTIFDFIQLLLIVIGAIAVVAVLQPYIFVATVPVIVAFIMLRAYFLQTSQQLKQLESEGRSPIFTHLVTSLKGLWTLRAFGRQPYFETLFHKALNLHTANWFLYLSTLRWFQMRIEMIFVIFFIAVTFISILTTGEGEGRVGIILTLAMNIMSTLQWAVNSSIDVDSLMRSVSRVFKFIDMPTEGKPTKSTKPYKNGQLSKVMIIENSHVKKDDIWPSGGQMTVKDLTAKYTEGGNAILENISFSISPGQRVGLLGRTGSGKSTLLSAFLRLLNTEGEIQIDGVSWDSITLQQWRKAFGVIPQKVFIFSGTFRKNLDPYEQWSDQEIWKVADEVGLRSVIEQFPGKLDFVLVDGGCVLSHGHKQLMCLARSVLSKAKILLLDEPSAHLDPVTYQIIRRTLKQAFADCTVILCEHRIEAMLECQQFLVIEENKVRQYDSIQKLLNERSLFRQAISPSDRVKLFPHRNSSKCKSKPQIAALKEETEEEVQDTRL

Row | SMILES | EC50 [µM] | Emax [%]
1 | COc1ccc(S(=O)(=O)N2CCC(n3c(-c4ccncc4Cl)nc4cccnc43)CC2)cc1Cl [Example 89] | 10 to 20 | > 80
2 | CCc1ccc(S(=O)(=O)N2CCC(n3c(-c4ccncc4F)nc4ccc(OC)nc43)CC2)cc1 [Example 138] | > 20 | 30 to 80
3 | CCc1ccc(S(=O)(=O)N2CCC(N(c3cccc(C)n3)S(=O)(=O)c3ccccc3Cl)CC2)cc1 [Example 189] | < 10 | 30 to 80
4 | O=S(=O)(c1ccc2c(c1)CCO2)N1CCC(n2c(-c3ccncc3F)nc3cccnc32)CC1 [Example 117] | < 10 | 30 to 80
5 | Cc1n[nH]c2ccc(S(=O)(=O)N3CCC(n4c(-c5ccncc5F)nc5cccnc54)CC3)cc12 [Example 141] | < 10 | 10 to 30
6 | Cc1cccc(N(C2CCN(S(=O)(=O)c3ccc4c(c3)OC(F)(F)O4)CC2)S(=O)(=O)c2ccccc2)n1 [Example 188] | < 10 | 10 to 30
7 | O=S(=O)(c1ccc2c(c1)OCO2)N1CCC(n2c(-c3cccnc3Cl)nc3cccnc32)CC1 [Example 92] | < 10 | 30 to 80
8 | Cc1cccc(N(C2CCN(S(=O)(=O)c3ccc4nc(C)oc4c3)CC2)S(=O)(=O)c2ccccc2Cl)n1 [Example 220, 2-Chloro-N-(1-((2-methylbenzo[d]oxazol-6-yl)sulfonyl)piperidin-4-yl)-N-(6-methylpyridin-2-yl)benzenesulfonamide] | < 10 | 30 to 80
9 | CCc1ccc(S(=O)(=O)N2CCC(n3c(-c4ncccc4Cl)nc4cccnc43)CC2)cc1 [Example 91] | < 10 | 30 to 80
10 | COc1ccc2c(c1)nc(-c1ccc(F)cc1F)n2C1CCN(S(=O)(=O)c2ccc3nc(C)oc3c2)CC1 [Example 164] | < 10 | > 80
11 | COc1ccc(S(=O)(=O)N2CCC(N(C(=O)c3ccccc3Cl)c3ccccn3)CC2)cc1Cl [Example 198] | < 10 | 10 to 30
12 | CCc1ccc(N(C(=O)c2ccccc2Cl)C2CCN(S(=O)(=O)c3ccc(CC)cc3)CC2)cc1 [Example 208] | 10 to 20 | 30 to 80
13 | COC(=O)c1ccccc1-c1nc2cccnc2n1C1CCN(S(=O)(=O)c2ccc(OC)c(Cl)c2)CC1 [Example 79] | < 10 | 30 to 80
14 | [2H]C1([2H])Oc2ccc(S(=O)(=O)N3CCC(n4c(-c5ccncc5Cl)nc5cccnc54)CC3)cc2O1 [Example 44] | < 10 | 30 to 80
15 | CCc1ccc(S(=O)(=O)N2CCC(n3c(-c4ccncc4F)nc4ccc(C)nc43)CC2)cc1 [Example 113] | < 10 | 30 to 80
16 | O=S(=O)(c1ccc(OC(F)F)cc1)N1CCC(n2c(-c3ccncc3Cl)nc3cccnc32)CC1 [Example 56] | < 10 | 30 to 80
17 | O=C(c1ccccc1Cl)N(c1ccccn1)C1CCN(S(=O)(=O)c2ccc3c(c2)OCO3)CC1 [Example 197] | < 10 | 10 to 30
18 | Cc1ccc2nc(-c3ccc(F)cc3F)n(C3CCN(S(=O)(=O)c4ccc5c(c4)OC(F)(F)O5)CC3)c2n1 [Example 43] | < 10 | 30 to 80
19 | Cc1cccc(N(C(=O)c2ccccc2Cl)C2CCN(S(=O)(=O)c3ccc4c(c3)OCO4)CC2)n1 [Example 202] | < 10 | 10 to 30
20 | COc1ccc(S(=O)(=O)N2CCC(N(C(=O)Nc3ccccc3Cl)c3cccc(C)n3)CC2)cc1Cl [Example 176] | < 10 | 10 to 30
21 | O=S(=O)(c1ccc2c(c1)CCC2)N1CCC(n2c(-c3ccc(F)cc3F)nc3cccnc32)CC1 [Example 122] | < 10 | > 80

Row | SMILES | EC50 [µM] | Emax [%]
22 | COc1ccc(S(=O)(=O)N2CCC(n3c(-c4ccc5c(c4)OCO5)nc4cccnc43)CC2)cc1Cl [Example 57] | < 10 | 30 to 80
23 | COc1ccc(S(=O)(=O)N2CCC(n3c(-c4ccccc4C(F)(F)F)nc4cccnc43)CC2)cc1Cl [Example 49] | < 10 | 30 to 80
24 | CCc1ccc(S(=O)(=O)N2CCC(n3c(-c4ccncc4Cl)nc4c(OC)ccnc43)CC2)cc1 [Example 170] | > 20 | 10 to 30
25 | CCc1ccc(S(=O)(=O)N2CCC(n3c(-c4ccc(F)nc4F)nc4cccnc43)CC2)cc1 [Example 111] | < 10 | 30 to 80
26 | CCc1ccc(S(=O)(=O)N2CCC(N(C(=O)c3ccccc3Cl)c3cccc(Cl)c3)CC2)cc1 [Example 217] | < 10 | 10 to 30
27 | CCc1ccc(S(=O)(=O)N2CCC(n3c(-c4cccnc4Cl)nc4cccnc43)CC2)cc1 [Example 45] | < 10 | 30 to 80
28 | CCc1ccc(S(=O)(=O)N2CCC(n3c(-c4ccncc4Cl)nc4cccnc43)CC2)cc1 [Example 41] | < 10 | 30 to 80
29 | Cc1cccc(N(C(=O)c2ccccc2)C2CCN(S(=O)(=O)c3ccc4c(c3)OC(F)(F)O4)CC2)n1 [Example 205] | < 10 | 10 to 30
30 | O=S(=O)(c1ccc2c(c1)OC(F)(F)O2)N1CCC(n2c(-c3ccccc3)nc3ccccc32)CC1 [Example 82] | < 10 | 30 to 80
31 | O=S(=O)(c1ccc2c(c1)OC(F)(F)O2)N1CCC(n2c(-c3ccccc3)cc3cccnc32)CC1 [Example 99] | < 10 | 30 to 80
32 | COc1cccc(S(=O)(=O)N2CCC(n3c(-c4ccccc4)nc4cccnc43)CC2)c1 [Example 68] | < 10 | 10 to 30
33 | COc1ccc(S(=O)(=O)N2CCC(n3c(-c4ccc(C(F)(F)F)cc4)nc4cccnc43)CC2)cc1Cl [Example 78] | < 10 | 10 to 30
34 | CCc1ccc(S(=O)(=O)N2CCC(n3c(-c4cccnc4F)nc4cccnc43)CC2)cc1 [Example 120] | < 10 | > 80
35 | CCc1ccc(S(=O)(=O)N2CCC(N(C(=S)c3ccccc3Cl)c3ccc4c(c3)OC(F)(F)O4)CC2)cc1 [Example 212] | 10 to 20 | 30 to 80
36 | O=S(=O)(c1ccc2c(c1)CCO2)N1CCC(n2c(-c3ccc(F)cc3F)nc3cccnc32)CC1 [Example 121] | < 10 | 30 to 80
37 | COc1ccc(S(=O)(=O)N2CCC(N(C(=O)c3ccccc3)c3cccc(C)n3)CC2)cc1Cl [Example 174] | > 20 | 10 to 30
38 | CCc1ccc(S(=O)(=O)N2CCC(N(c3ncccc3OC)S(=O)(=O)c3ccccc3Cl)CC2)cc1 [Example 247] | < 10 | 30 to 80
39 | CCc1ccc(S(=O)(=O)N2CCC(n3c(-c4ccncc4Cl)nc4ccc(OC)nc43)CC2)cc1 [Example 42] | < 10 | 30 to 80
40 | Cc1cc2cc(S(=O)(=O)N3CCC(n4c(-c5ccc(F)cc5F)nc5cccnc54)CC3)ccc2[nH]1 [Example 143] | < 10 | 10 to 30
41 | Cc1cc2cc(S(=O)(=O)N3CCC(n4c(-c5ccncn5)nc5cccnc54)CC3)ccc2[nH]1 [Example 147] | < 10 | 10 to 30
42 | O=S(=O)(c1ccc2c(c1)OC(F)(F)O2)N1CCC(n2c(-c3cccnc3F)nc3cccnc32)CC1 [Example 119] | < 10 | > 80

Row | SMILES | EC50 [µM] | Emax [%]
43 | CC(C)c1ccc(S(=O)(=O)N2CCC(n3c(-c4ccccc4)nc4cccnc43)CC2)cc1 [Example 69] | < 10 | 10 to 30
44 | CCc1ccc(S(=O)(=O)N2CCC(N(c3cnccn3)S(=O)(=O)c3ccccc3Cl)CC2)cc1 [Example 248] | < 10 | 30 to 80
45 | CC(=O)N1c2ccc(S(=O)(=O)N3CCC(n4c(-c5ccc(F)cc5F)nc5cccnc54)CC3)cc2CC1C (centres unmarked) [Example 146] | < 10 | 10 to 30
46 | COc1ccc(S(=O)(=O)N2CCC(n3c(-c4ccccc4)cc4ccccc43)CC2)cc1Cl [Example 103] | < 10 | 10 to 30
47 | CC1Cc2cc(S(=O)(=O)N3CCC(n4c(-c5ccncc5F)nc5cccnc54)CC3)ccc2N1 (centres unmarked) [Example 148] | < 10 | 10 to 30
48 | CCc1ccc(S(=O)(=O)N2CCC(N(C(=O)Nc3ccccc3)c3cccc(C)n3)CC2)cc1 [Example 179] | < 10 | 10 to 30
49 | Cc1nc2ccc(S(=O)(=O)N3CCC(n4c(-c5ccc(F)cc5F)nc5cccnc54)CC3)cc2o1 [Example 134] | < 10 | 30 to 80
50 | COc1ccc2nc(-c3ccncc3Cl)n(C3CCN(S(=O)(=O)c4ccc5c(c4)OC(F)(F)O5)CC3)c2n1 [Example 118] | < 10 | 30 to 80
51 | CCc1ccc(S(=O)(=O)N2CCC(N(C(=O)c3ccncc3Cl)c3ccccn3)CC2)cc1 [Example 199] | < 10 | 10 to 30
52 | CCc1ccc(S(=O)(=O)N2CCC(N(c3ccc(C)cc3)S(=O)(=O)c3ccccc3Cl)CC2)cc1 [Example 237] | < 10 | 10 to 30
53 | CCc1ccc(S(=O)(=O)N2CCC(n3c(-c4ccncn4)nc4ccc(C)nc43)CC2)cc1 [Example 115] | < 10 | 30 to 80
54 | CCc1ccc(S(=O)(=O)N2CCC(N(c3ccncn3)S(=O)(=O)c3ccccc3Cl)CC2)cc1 [Example 249] | < 10 | 30 to 80
55 | CCc1ccc(S(=O)(=O)N2CCC(N(c3cccc(C)n3)S(=O)(=O)c3c(C)cc(C)cc3C)CC2)cc1 [Example 192] | < 10 | 30 to 80
56 | O=S(=O)(c1ccc2c(c1)OC(F)(F)O2)N1CCC(n2c(-c3ccccc3OC(F)(F)F)nc3cccnc32)CC1 [Example 124] | < 10 | 30 to 80
57 | O=S(=O)(c1ccc2c(c1)OC(F)(F)O2)N1CCC(n2c(-c3ccccc3Cl)nc3cccnc32)CC1 [Example 39] | < 10 | 30 to 80
58 | CC(=O)Nc1ccc(S(=O)(=O)N2CCC(n3c(-c4ccccc4)nc4cccnc43)CC2)cc1Cl [Example 70] | < 10 | 10 to 30
59 | COc1ccc(S(=O)(=O)N2CCC(N(C(=O)c3ccccc3Cl)c3ccccn3)CC2)cc1F [Example 203] | < 10 | 1
60 | CCc1ccc(S(=O)(=O)N2CCC(N(c3ccccn3)S(=O)(=O)c3ccc(C)cc3)CC2)cc1 [Example 229] | < 10 | 10 to 30
61 | COc1ccc(S(=O)(=O)N2CCC(n3c(-c4ccccc4)nc4cccnc43)CC2)cc1C(F)(F)F [Example 74] | < 10 | 30 to 80
